Measured values as given in ChEMBL document CHEMBL3112491, “3-(5-)-Amino-o-diarylisoxazoles: regioselective synthesis and antitubulin activity” (2014).

What was measured:
Format in all cases: functional
MDA-MB-468 = assay: Growth inhibition of human MDA-MB-468 cells after 48 hrs by sulforhodamine B assay; conditions: MDA-MB-468, 48 h
[1] = Growth inhibition of human Hs 578T cells after 48 hrs by sulforhodamine B assay
Malme-3M = assay: Growth inhibition of human MALME-3M cells after 48 hrs by sulforhodamine B assay
Paracentrotus lividus [2] = assay: Antimitotic activity in sea urchin fertilized egg assessed as cleavage arrest treated at 8 to 20 mins post-fertilization measured at 2.5 to 5.5 hrs post-fertilization
786-0 = assay: Growth inhibition of human 786-0 cells after 48 hrs by sulforhodamine B assay; conditions: 786-0, 48 h
[3] = Growth inhibition of human EKVX cells after 48 hrs by sulforhodamine B assay
HT-29 = assay: Growth inhibition of human HT-29 cells after 48 hrs by sulforhodamine B assay; conditions: HT-29, 48 h
[4] = Growth inhibition of human NCI-ADR-RES cells after 48 hrs by sulforhodamine B assay
CCRF-CEM = assay: Growth inhibition of human CCRF-CEM cells after 48 hrs by sulforhodamine B assay
MCF7 = assay: Growth inhibition of human MCF7 cells after 48 hrs by sulforhodamine B assay; conditions: MCF7, 48 h
[5] = Growth inhibition of human OVCAR5 cells after 48 hrs by sulforhodamine B assay; conditions: OVCAR-5, 48 h
Paracentrotus lividus [6] = assay: Microtubule destabilizing activity in sea urchin free-swimming blastula assessed as embryo spinning treated at 9 to 10 hrs post-fertilization measured after 0.15 to 15 hrs
NCI-H23 = assay: Growth inhibition of human NCI-H23 cells after 48 hrs by sulforhodamine B assay; conditions: NCI-H23, 48 h
SK-MEL-28 = assay: Growth inhibition of human SK-MEL-28 cells after 48 hrs by sulforhodamine B assay; conditions: SK-MEL-28, 48 h
A498 = assay: Growth inhibition of human A498 cells after 48 hrs by sulforhodamine B assay; conditions: A498, 48 h
COLO 205 = assay: Growth inhibition of human COLO205 cells after 48 hrs by sulforhodamine B assay; conditions: COLO 205, 48 h
UACC-62 = assay: Growth inhibition of human UACC62 cells after 48 hrs by sulforhodamine B assay; conditions: UACC-62, 48 h
HL-60(TB) = assay: Growth inhibition of human HL-60(TB) cells after 48 hrs by sulforhodamine B assay; conditions: HL-60, 48 h
MDA-MB-231 = assay: Growth inhibition of human MDA-MB-231 cells after 48 hrs by sulforhodamine B assay; conditions: MDA-MB-231, 48 h
PC-3 = assay: Growth inhibition of human PC3 cells after 48 hrs by sulforhodamine B assay; conditions: PC-3, 48 h
[7] = Growth inhibition of human HOP92 cells after 48 hrs by sulforhodamine B assay; conditions: HOP-92, 48 h
T47D = assay: Growth inhibition of human T47D cells after 48 hrs by sulforhodamine B assay
OVCAR-8 = assay: Growth inhibition of human OVCAR8 cells after 48 hrs by sulforhodamine B assay; conditions: OVCAR-8, 48 h
RPMI-8226 = assay: Growth inhibition of human RPMI8226 cells after 48 hrs by sulforhodamine B assay; conditions: RPMI-8226, 48 h
BT-549 = assay: Growth inhibition of human BT549 cells after 48 hrs by sulforhodamine B assay; conditions: BT-549, 48 h
LOX IMVI = assay: Growth inhibition of human LOXIMVI cells after 48 hrs by sulforhodamine B assay
Paracentrotus lividus [8] = assay: Antimitotic activity in sea urchin fertilized egg assessed as cleavage alteration treated at 8 to 20 mins post-fertilization measured at 2.5 to 5.5 hrs post-fertilization
NCI-H322M = assay: Growth inhibition of human NCI-H322M cells after 48 hrs by sulforhodamine B assay
U-251 = assay: Growth inhibition of human U251 cells after 48 hrs by sulforhodamine B assay; conditions: U-251, 48 h
IGROV-1 = assay: Growth inhibition of human IGROV1 cells after 48 hrs by sulforhodamine B assay; conditions: IGROV-1, 48 h
[9] = Growth inhibition of human SF539 cells after 48 hrs by sulforhodamine B assay; conditions: SF-539, 48 h
M14 = assay: Growth inhibition of human M14 cells after 48 hrs by sulforhodamine B assay; conditions: M14, 48 h
HOP-62 = assay: Growth inhibition of human HOP62 cells after 48 hrs by sulforhodamine B assay; conditions: HOP-62, 48 h
HCT-15 = assay: Growth inhibition of human HCT15 cells after 48 hrs by sulforhodamine B assay; conditions: HCT-15, 48 h
MOLT-4 = assay: Growth inhibition of human MOLT4 cells after 48 hrs by sulforhodamine B assay; conditions: MOLT-4, 48 h
HCT-116 = assay: Growth inhibition of human HCT116 cells after 48 hrs by sulforhodamine B assay; conditions: HCT-116, 48 h
SNB-19 = assay: Growth inhibition of human SNB19 cells after 48 hrs by sulforhodamine B assay; conditions: SNB-19, 48 h
TK-10 = assay: Growth inhibition of human TK10 cells after 48 hrs by sulforhodamine B assay; conditions: TK-10, 48 h
NCI-H460 = assay: Growth inhibition of human NCI-H460 cells after 48 hrs by sulforhodamine B assay; conditions: NCI-H460, 48 h
[10] = Growth inhibition of human RXF393 cells after 48 hrs by sulforhodamine B assay; conditions: RXF 393, 48 h
[11] = Growth inhibition of human HCC2998 cells after 48 hrs by sulforhodamine B assay; conditions: HCC 2998, 48 h
ACHN = assay: Growth inhibition of human ACHN cells after 48 hrs by sulforhodamine B assay
OVCAR-3 = assay: Growth inhibition of human OVCAR3 cells after 48 hrs by sulforhodamine B assay; conditions: OVCAR-3, 48 h
SK-MEL-5 = assay: Growth inhibition of human SK-MEL-5 cells after 48 hrs by sulforhodamine B assay; conditions: SK-MEL-5, 48 h
SN12C = assay: Growth inhibition of human SN12C cells after 48 hrs by sulforhodamine B assay
NCI-H522 = assay: Growth inhibition of human NCI-H522 cells after 48 hrs by sulforhodamine B assay; conditions: NCI-H522, 48 h
SR = assay: Growth inhibition of human SR cells after 48 hrs by sulforhodamine B assay
[12] = Growth inhibition of human UO31 cells after 48 hrs by sulforhodamine B assay; conditions: UO-31, 48 h
[13] = Growth inhibition of human OVCAR4 cells after 48 hrs by sulforhodamine B assay; conditions: OVCAR-4, 48 h
SF-268 = assay: Growth inhibition of human SF268 cells after 48 hrs by sulforhodamine B assay; conditions: SF-268, 48 h
SF-295 = assay: Growth inhibition of human SF295 cells after 48 hrs by sulforhodamine B assay; conditions: SF-295, 48 h
A549 = assay: Growth inhibition of human A549/ATCC cells after 48 hrs by sulforhodamine B assay; conditions: A549, 48 h
NCI-H226 = assay: Growth inhibition of human NCI-H226 cells after 48 hrs by sulforhodamine B assay; conditions: NCI-H226, 48 h
CAKI-1 = assay: Growth inhibition of human CAKI-1 cells after 48 hrs by sulforhodamine B assay; conditions: CAKI-1, 48 h
SK-MEL-2 = assay: Growth inhibition of human SK-MEL-2 cells after 48 hrs by sulforhodamine B assay; conditions: SK-MEL-2, 48 h
MDA-MB-435 = assay: Growth inhibition of human MDA-MB-435 cells after 48 hrs by sulforhodamine B assay; conditions: MDA-MB-435, 48 h
SK-OV-3 = assay: Growth inhibition of human SKOV3 cells after 48 hrs by sulforhodamine B assay; conditions: SK-OV-3, 48 h
SW-620 = assay: Growth inhibition of human SW620 cells after 48 hrs by sulforhodamine B assay; conditions: SW-620, 48 h
DU-145 = assay: Growth inhibition of human DU145 cells after 48 hrs by sulforhodamine B assay; conditions: DU-145, 48 h
KM12 = assay: Growth inhibition of human KM12 cells after 48 hrs by sulforhodamine B assay; conditions: KM12, 48 h
[14] = Growth inhibition of human UACC257 cells after 48 hrs by sulforhodamine B assay; conditions: UACC-257, 48 h
SNB-75 = assay: Growth inhibition of human SNB75 cells after 48 hrs by sulforhodamine B assay; conditions: SNB-75, 48 h

## COc1ccc(-c2c(-c3cc(OC)c4c(c3)OCCO4)noc2N)cc1
MDA-MB-468
  GI50: 12.2 nM
[1]
  GI50: < 10 nM
Malme-3M
  GI50: 23600 nM
Paracentrotus lividus [2]
  EC: 0.01 µM
786-0
  GI50: 14.5 nM
[3]
  GI50: 35.3 nM
HT-29
  GI50: < 10 nM
[4]
  GI50: < 10 nM
CCRF-CEM
  GI50: 15.5 nM
MCF7
  GI50: < 10 nM
[5]
  GI50: 50.5 nM
Paracentrotus lividus [6]
  EC: 0.1 µM
NCI-H23
  GI50: 1.95 nM
SK-MEL-28
  GI50: 17 nM
A498
  GI50: < 10 nM
COLO 205
  GI50: < 10 nM
UACC-62
  GI50: < 10 nM
HL-60(TB)
  GI50: 10.4 nM
MDA-MB-231
  GI50: 73.4 nM
PC-3
  GI50: 24.8 nM
[7]
  GI50: 446 nM
T47D
  GI50: 27.2 nM
OVCAR-8
  GI50: 21.5 nM
RPMI-8226
  GI50: 33.8 nM
BT-549
  GI50: 28.5 nM
LOX IMVI
  GI50: 11.2 nM
Paracentrotus lividus [8]
  EC: 0.002 µM
NCI-H322M
  GI50: 25400 nM
U-251
  GI50: 14.8 nM
IGROV-1
  GI50: 13.6 nM
[9]
  GI50: 13 nM
M14
  GI50: < 10 nM
HOP-62
  GI50: < 10 nM
HCT-15
  GI50: < 10 nM
MOLT-4
  GI50: 39.8 nM
HCT-116
  GI50: < 10 nM
SNB-19
  GI50: 26.9 nM
TK-10
  GI50: 15.8 nM
NCI-H460
  GI50: < 10 nM
[10]
  GI50: < 10 nM
[11]
  GI50: 20.1 nM
ACHN
  GI50: 12.2 nM
OVCAR-3
  GI50: < 10 nM
SK-MEL-5
  GI50: < 10 nM
SN12C
  GI50: 31.8 nM
NCI-H522
  GI50: < 10 nM
SR
  GI50: < 10 nM
[12]
  GI50: 57.8 nM
[13]
  GI50: 78.7 nM
SF-268
  GI50: 30 nM
SF-295
  GI50: < 10 nM
A549
  GI50: 10.1 nM
NCI-H226
  GI50: 27.7 nM
CAKI-1
  GI50: < 10 nM
SK-MEL-2
  GI50: < 10 nM
MDA-MB-435
  GI50: < 10 nM
SK-OV-3
  GI50: < 10 nM
SW-620
  GI50: < 10 nM
DU-145
  GI50: 32 nM
KM12
  GI50: < 10 nM

## COc1ccc(-c2c(-c3cc4c(c(OC)c3OC)OCO4)noc2N)cc1
MDA-MB-468
  GI50: 138 nM
[1]
  GI50: 438 nM
Paracentrotus lividus [2]
  EC: 0.2 µM
786-0
  GI50: 578 nM
[3]
  GI50: 23600 nM
HT-29
  GI50: 262 nM
[4]
  GI50: 126 nM
[14]
  GI50: 458 nM
MCF7
  GI50: 280 nM
[5]
  GI50: 2100 nM
Paracentrotus lividus [6]
  EC: 2 µM
NCI-H23
  GI50: 391 nM
SK-MEL-28
  GI50: 497 nM
A498
  GI50: 374 nM
COLO 205
  GI50: 272 nM
UACC-62
  GI50: 513 nM
HL-60(TB)
  GI50: 189 nM
MDA-MB-231
  GI50: 983 nM
PC-3
  GI50: 300 nM
[7]
  GI50: 837 nM
T47D
  GI50: 568 nM
OVCAR-8
  GI50: 448 nM
BT-549
  GI50: 848 nM
LOX IMVI
  GI50: 523 nM
Paracentrotus lividus [8]
  EC: 0.02 µM
NCI-H322M
  GI50: 625 nM
U-251
  GI50: 359 nM
IGROV-1
  GI50: 683 nM
[9]
  GI50: 285 nM
M14
  GI50: 244 nM
HOP-62
  GI50: 551 nM
HCT-15
  GI50: 352 nM
MOLT-4
  GI50: 674 nM
HCT-116
  GI50: 314 nM
SNB-19
  GI50: 672 nM
TK-10
  GI50: 202 nM
NCI-H460
  GI50: 364 nM
[10]
  GI50: 335 nM
[11]
  GI50: 524 nM
ACHN
  GI50: 831 nM
OVCAR-3
  GI50: 184 nM
SK-MEL-5
  GI50: 238 nM
SN12C
  GI50: 818 nM
NCI-H522
  GI50: 65.5 nM
SR
  GI50: 35.9 nM
[12]
  GI50: 669 nM
[13]
  GI50: 927 nM
SF-268
  GI50: 641 nM
SF-295
  GI50: 274 nM
A549
  GI50: 523 nM
NCI-H226
  GI50: 855 nM
SK-MEL-2
  GI50: 362 nM
MDA-MB-435
  GI50: 29.2 nM
SK-OV-3
  GI50: 338 nM
SW-620
  GI50: 210 nM
SNB-75
  GI50: 138 nM
DU-145
  GI50: 487 nM
KM12
  GI50: 112 nM
